Experiment [1] has as its system MCF-7 cells. Kind of experiment: MTT antiproliferative assay, MCF-7. As to conditions: Homo sapiens, read-out: IC50 (μM) ± SD MCF-7. The experiment is classed as cell-based. As to the method: (§1) The in vitro antiproliferative activities of all target compounds 4a−k, 5a−h, and 6a−h were assayed by MTT method using human gastric cancer cell line SGC-7901 and human breast cancer cell line MCF-7.
(§2) All cell lines tested in this study were purchased from the American Type Culture Collection (ATCC, Manassas, VA). SGC-7901 (human gastric adenocarcinoma), HCT-116 (human colon carcinoma), and A549 (human pulmonary carcinoma) cells were cultured in RPMI-1640 medium containing 10% foetal serum (FBS) and 1% penicillin-streptomycin solution (100×). MCF-7 (human breast carcinoma) cells were cultured in DMEM medium containing 10% foetal serum (FBS) and 1% penicillin-streptomycin solution (100×). PC-3 (human prostate carcinoma) cells were cultured in Ham’s F-12K medium containing 10% foetal serum (FBS) and 1% penicillin-streptomycin solution (100×). All cells were cultured at 37 °C in a humidified atmosphere containing 5% CO2.
(§3) Cells grown in logarithmic phase were harvested and seeded onto 96-well cell plates at a density of 4 ∼ 5 × 10^3 cells per well (various from cell type) and were cultured for 24 h. Different concentrations of compounds were added into the wells, and the cells were cultured for another 72 h. The medium was removed, then 20 μL of MTT (5 mg/mL in PBS) was added to each well and the cells were incubated for 4 h. 150 μL of DMSO was added to each well to dissolve the formazan, and the absorbance at 490 nm of each well was measured by a microplate reader. IC50 values were calculated by SPSS software.
Background: Tetrazolium assays rely on reduction of a dye to a coloured formazan, in cell work by metabolically active cells.

The subject of experiment [2] is SGC-7901 cells. The experiment in a line: MTT antiproliferative assay, SGC-7901. It counts as cell-based. Conditions: Homo sapiens, read-out: IC50 (μM) ± SD SGC-7901. As to the method:
as §1, §2, §3

The test system of experiment [3] is tubulin. Kind of experiment: In vitro tubulin polymerisation assay. It counts as biochemical. As to conditions: 3 μM. As to the method: To investigate the effect of compounds 4k and 5a on microtubule system, their tubulin polymerisation inhibition activities were evaluated using in vitro tubulin polymerisation assay.
The BK001 kit used in this test was purchased from Cytoskeleton Inc. (Denver, CO, USA). […] Then the mixtures were transferred to 37 °C and tubulin assembly was monitored (excitation wavelength: 360 nm; emission wavelength: 420 nm) at 1 min intervals for 90 min by a microplate reader.

[4] abbreviates: MCF7, 72 h drug exposure, MTT assay.
Where [5] appears, read: SGC-7901, 72 h drug exposure, MTT assay.

Where two headings read alike, the source gives them in different places.

`COc1cc(C2=NCC(=O)Nc3cn(-c4ccc(Cl)cc4)nc32)cc(OC)c1OC` [5h, 2–(4-Chlorophenyl)-8–(3,4,5-trimethoxyphenyl)-2,6-dihydropyrazolo[4,3-e][1,4]diazepin-5(4H)-one]: the values for the IC50 in experiment [1] (setting [4]) and in experiment [2] (setting [5]) were 0.857 ± 0.09 µM and 0.772 ± 0.004 µM, respectively.

Take `COc1cc(C(=O)c2nn(-c3cccc(F)c3)cc2N)cc(OC)c1OC` [4e, (4-Amino-1–(3-fluorophenyl)-1H-pyrazol-3-yl)(3,4,5-trimethoxyphenyl)methanone]: the IC50 came to 0.35 ± 0.023 µM in experiment [1] (setting [4]) and 0.439 ± 0.037 µM in experiment [2] (setting [5]).

In the case of `COc1cc(C2=NNC(=S)Nc3cn(-c4ccccc4F)nc32)cc(OC)c1OC` [6d, 2–(2-Fluorophenyl)-8–(3,4,5-trimethoxyphenyl)-2,6-dihydropyrazolo[4,3-e][1,2,4]triazepine-5(4H)-thione], the half-inhibitory concentration (IC50) is 0.398 ± 0.079 µM in experiment [1] (setting [4]) and 0.087 ± 0.008 µM in experiment [2] (setting [5]).

In the case of `COc1cc(C2=NNC(=S)Nc3cn(-c4ccc(C)cc4)nc32)cc(OC)c1OC` [6c, 2–(4-Methylphenyl)-8–(3,4,5-trimethoxyphenyl)-2,6-dihydropyrazolo[4,3-e][1,2,4]triazepine-5(4H)-thione], the IC50 in experiment [1] (setting [4]) came out at 0.123 ± 0.02 µM; in experiment [2] (setting [5]), 0.151 ± 0.024 µM.

In the case of `COc1cc(C(=O)c2nn(-c3ccccc3)cc2N)cc(OC)c1OC` [4a, (4-Amino-1-phenyl-1H-pyrazol-3-yl)(3,4,5-trimethoxyphenyl)methanone], the 50% inhibitory concentration (IC50) was determined as 0.034 ± 0.005 µM in experiment [1] (setting [4]) and 0.04 ± 0.003 µM in experiment [2] (setting [5]).

With `COc1cc(C2=NNC(=S)Nc3cn(-c4cccc(C)c4)nc32)cc(OC)c1OC` [6b, 2–(3-Methylphenyl)-8–(3,4,5-trimethoxyphenyl)-2,6-dihydropyrazolo[4,3-e][1,2,4]triazepine-5(4H)-thione], the half-maximal inhibitory concentration (IC50) in experiment [1] (setting [4]) was 0.749 ± 0.181 µM; in experiment [2] (setting [5]), 0.366 ± 0.065 µM.

For the compound `CC(=O)O[C@H]1C(=O)[C@@]2(C)[C@H]([C@H](OC(=O)c3ccccc3)[C@]3(O)C[C@H](OC(=O)[C@H](O)[C@@H](NC(=O)c4ccccc4)c4ccccc4)C(C)=C1C3(C)C)[C@]1(OC(C)=O)CO[C@@H]1C[C@@H]2O` [paclitaxel, reference compound], the “effect on tubulin polymerisation (fluorescence intensity)” value in experiment [3] is “enhanced microtubule polymerisation”.

In the case of `COc1cc(C2=NNC(=S)Nc3cn(-c4ccc(F)cc4)nc32)cc(OC)c1OC` [6f, 2–(4-Fluorophenyl)-8–(3,4,5-trimethoxyphenyl)-2,6-dihydropyrazolo[4,3-e][1,2,4]triazepine-5(4H)-thione], the 50% inhibitory concentration (IC50) was determined as 8.42 ± 0.954 µM in experiment [1] (setting [4]) and 10 ± 0.078 µM in experiment [2] (setting [5]).

Regarding `COc1cc(C2=NCC(=O)Nc3cn(-c4ccccc4F)nc32)cc(OC)c1OC` [5d, 2–(2-Fluorophenyl)-8–(3,4,5-trimethoxyphenyl)-2,6-dihydropyrazolo[4,3-e][1,4]diazepin-5(4H)-one], the IC50 in experiment [1] (setting [4]) is 1.08 ± 0.381 µM; in experiment [2] (setting [5]), 0.053 ± 0.008 µM.

For `COc1cc(C2=NCC(=O)Nc3cn(-c4ccc(F)cc4)nc32)cc(OC)c1OC` [5f, 2–(4-Fluorophenyl)-8–(3,4,5-trimethoxyphenyl)-2,6-dihydropyrazolo[4,3-e][1,4]diazepin-5(4H)-one], the 50% inhibitory concentration (IC50) was determined as 1.86 ± 0.438 µM in experiment [1] (setting [4]) and 0.137 ± 0.025 µM in experiment [2] (setting [5]).

In the case of `COc1cc(C(=O)c2nn(-c3ccc(C)cc3)cc2N)cc(OC)c1OC` [4c, (4-Amino-1–(4-methylphenyl)-1H-pyrazol-3-yl)(3,4,5-trimethoxyphenyl)methanone], the values for the IC50 in experiment [1] (setting [4]) and in experiment [2] (setting [5]) were 3.9 ± 0.205 µM and 0.234 ± 0.033 µM, respectively.

As to `COc1cc(C(=O)c2nn(-c3ccccc3C)cc2N)cc(OC)c1OC` [4i, (4-Amino-1–(2-methylphenyl)-1H-pyrazol-3-yl)(3,4,5-trimethoxyphenyl)methanone], the figures for the IC50 in experiment [1] (setting [4]) and in experiment [2] (setting [5]) were 2.2 ± 0.196 µM and 0.166 ± 0.004 µM, respectively.

Regarding `COc1cc(C2=NNC(=S)Nc3cn(-c4ccccc4)nc32)cc(OC)c1OC` [6a, 2-Phenyl-8–(3,4,5-trimethoxyphenyl)-2,6-dihydropyrazolo[4,3-e][1,2,4]triazepine-5(4H)-thione], the IC50 came out at 2.98 ± 0.462 µM in experiment [1] (setting [4]) and 2.74 ± 0.041 µM in experiment [2] (setting [5]).

With `COc1cc(C(=O)c2nn(-c3ccc(Cl)cc3)cc2N)cc(OC)c1OC` [4h, (4-Amino-1–(4-chlorophenyl)-1H-pyrazol-3-yl)(3,4,5-trimethoxyphenyl)methanone], the half-inhibitory concentration (IC50) was determined as 0.098 ± 0.007 µM in experiment [1] (setting [4]) and 0.318 ± 0.02 µM in experiment [2] (setting [5]).

In the case of `COc1cc(C2=NCC(=O)Nc3cn(-c4cccc(F)c4)nc32)cc(OC)c1OC` [5e, 2–(3-Fluorophenyl)-8–(3,4,5-trimethoxyphenyl)-2,6-dihydropyrazolo[4,3-e][1,4]diazepin-5(4H)-one], the IC50 in experiment [1] (setting [4]) turned out to be 3.01 ± 0.534 µM; in experiment [2] (setting [5]), 0.949 ± 0.017 µM.

As to `COc1cc(C(=O)c2nn(-c3ccc(F)cc3)cc2N)cc(OC)c1OC` [4f, (4-Amino-1–(4-fluorophenyl)-1H-pyrazol-3-yl)(3,4,5-trimethoxyphenyl)methanone], the half-inhibitory concentration (IC50) was determined as 0.162 ± 0.01 µM in experiment [1] (setting [4]) and 0.092 ± 0.005 µM in experiment [2] (setting [5]).

For the compound `COc1cc(C2=NNC(=S)Nc3cn(-c4cccc(F)c4)nc32)cc(OC)c1OC` [6e, 2–(3-Fluorophenyl)-8–(3,4,5-trimethoxyphenyl)-2,6-dihydropyrazolo[4,3-e][1,2,4]triazepine-5(4H)-thione], the half-maximal inhibitory concentration (IC50) was 6.9 ± 0.815 µM in experiment [1] (setting [4]) and 5.12 ± 0.099 µM in experiment [2] (setting [5]).

Turning to `COc1ccc(-n2cc3c(n2)C(c2cc(OC)c(OC)c(OC)c2)=NCC(=O)N3)cc1` [5g, 2–(4-Methoxyphenyl)-8–(3,4,5-trimethoxyphenyl)-2,6-dihydropyrazolo[4,3-e][1,4]diazepin-5(4H)-one], the half-inhibitory concentration (IC50) in experiment [1] (MCF7, 72 h) was 2.86 ± 0.435 µM; in experiment [2] (SGC-7901, 72 h) it was 0.841 ± 0.024 µM.

With `COc1cc(C2=NCC(=O)Nc3cn(-c4ccc(C)cc4)nc32)cc(OC)c1OC` [5c, 2–(4-Methylphenyl)-8–(3,4,5-trimethoxyphenyl)-2,6-dihydropyrazolo[4,3-e][1,4]diazepin-5(4H)-one], the results for the IC50 in experiment [1] (setting [4]) and in experiment [2] (setting [5]) were 1.38 ± 0.433 µM and 0.117 ± 0.01 µM, respectively.

Turning to `COc1cc(C(=O)c2nn(-c3cccc(C)c3)cc2N)cc(OC)c1OC` [4b, (4-Amino-1–(3-methylphenyl)-1H-pyrazol-3-yl)(3,4,5-trimethoxyphenyl)methanone], the half-maximal inhibitory concentration (IC50) came out at 0.224 ± 0.06 µM in experiment [1] (setting [4]) and 0.095 ± 0.011 µM in experiment [2] (setting [5]).

Take `COc1ccc(-n2cc(N)c(C(=O)c3cc(OC)c(OC)c(OC)c3)n2)cc1` [4g, (4-Amino-1–(4-methoxyphenyl)-1H-pyrazol-3-yl)(3,4,5-trimethoxyphenyl)methanone]: the figures for the 50% inhibitory concentration (IC50) in experiment [1] (setting [4]) and in experiment [2] (setting [5]) were 0.068 ± 0.012 µM and 0.022 ± 0.002 µM, respectively.

As for `COc1cc(C2=NNC(=S)Nc3cn(-c4ccc(Cl)cc4)nc32)cc(OC)c1OC` [6h, 2–(4-Chlorophenyl)-8–(3,4,5-trimethoxyphenyl)-2,6-dihydropyrazolo[4,3-e][1,2,4]triazepine-5(4H)-thione], the values for the IC50 in experiment [1] (setting [4]) and in experiment [2] (setting [5]) were 0.662 ± 0.07 µM and 0.485 ± 0.03 µM, respectively.

Take `COc1cc(C2=NCC(=O)Nc3cn(-c4cccc(C)c4)nc32)cc(OC)c1OC` [5b, 2–(3-Methylphenyl)-8–(3,4,5-trimethoxyphenyl)-2,6-dihydropyrazolo[4,3-e][1,4]diazepin-5(4H)-one]: the half-inhibitory concentration (IC50) was 0.665 ± 0.052 µM in experiment [1] (setting [4]) and 0.424 ± 0.076 µM in experiment [2] (setting [5]).

Consider `COc1ccc(-n2cc3c(n2)C(c2cc(OC)c(OC)c(OC)c2)=NNC(=S)N3)cc1` [6g, 2–(4-Methoxyphenyl)-8–(3,4,5-trimethoxyphenyl)-2,6-dihydropyrazolo[4,3-e][1,2,4]triazepine-5(4H)-thione], for which the IC50 in experiment [1] (setting [4]) was 1.57 ± 0.243 µM; in experiment [2] (setting [5]), 2.16 ± 0.098 µM.

Turning to `COc1cc(C(=O)c2nn(-c3ccccc3F)cc2N)cc(OC)c1OC` [4d, (4-Amino-1–(2-fluorophenyl)-1H-pyrazol-3-yl)(3,4,5-trimethoxyphenyl)methanone], the half-maximal inhibitory concentration (IC50) is 0.404 ± 0.036 µM in experiment [1] (setting [4]) and 0.086 ± 0.004 µM in experiment [2] (setting [5]).

With `COc1cc(C(=O)c2nn(-c3ccc([N+](=O)[O-])cc3)cc2N)cc(OC)c1OC` [4j, (4-Amino-1–(4-nitrophenyl)-1H-pyrazol-3-yl)(3,4,5-trimethoxyphenyl)methanone], the IC50 is 0.391 ± 0.083 µM in experiment [1] (setting [4]) and 0.04 ± 0.006 µM in experiment [2] (setting [5]).

In general, IC50 refers to the point on the concentration scale where inhibition reaches its midpoint.

Source of the values: PMC12459184, “Design, synthesis, and bioevaluation of pyrazole-containing tubulin polymerisation inhibitors based on conformational constraint strategy” (Journal of Enzyme Inhibition and Medicinal Chemistry, 2025).
